Experimental data from US10435405B2, “Pyrazolopyridine compounds and uses thereof” (Incyte Corporation, priority 2016, dated 2019).

Molecular target: HPK1 (Homo sapiens (Human), UniProt Q92918)
Assay: HPK1 Kinase Binding Assay
Description: A stock solution of 1 mM test compound was prepared in DMSO. The compound plate was prepared by 3-fold and 11-point serial dilutions. 0.1 μL of the compound in DMSO was transferred from the compound plate to the white 384 well polystyrene plates. The assay buffer contained 50 mM HEPES, pH 7.5, 0.01% Tween-20, 5 mM MgCl2, 0.01% BSA, and 5 mM DTT. 5 μl of 4 nM active HPK1 (SignalChem M23-11G) prepared in the buffer was added to the plate. The enzyme concentration given was based on the given stock concentration reported by the vender. 5 μl of 18 nM tracer 222 (ThermoFisher PV6121) and 4 nM LanthaScreen Eu-Anti GST antibody (ThermoFisher PV5595) were added. After one hour incubation at 25° C., the plates were read on a PHERAstar FS plate reader (BMG Labtech). Ki values were determined.

Sequence of HPK1 (Q92918 1-346): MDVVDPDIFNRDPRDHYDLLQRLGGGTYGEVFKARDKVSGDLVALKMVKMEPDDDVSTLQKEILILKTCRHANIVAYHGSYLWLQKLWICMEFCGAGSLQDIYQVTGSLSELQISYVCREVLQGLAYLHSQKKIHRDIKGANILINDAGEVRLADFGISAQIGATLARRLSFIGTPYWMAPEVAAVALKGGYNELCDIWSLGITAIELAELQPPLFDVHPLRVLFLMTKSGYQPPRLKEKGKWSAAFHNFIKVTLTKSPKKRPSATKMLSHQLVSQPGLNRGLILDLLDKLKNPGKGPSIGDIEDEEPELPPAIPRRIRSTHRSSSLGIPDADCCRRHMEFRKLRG

SMILES	Ki [nM]
Cc1cc(C2CCCN2)cc(F)c1-c1cc2c(-c3cnn(C)c3)n[nH]c2cn1 (single isomer, unassigned) [Example 171, 5-(2-Fluoro-6-methyl-4-(pyrrolidin-2-yl)phenyl)-3-(1-methyl-1H-pyrazol-4-yl)-1H-pyrazolo[3,4-c]pyridine]	≤ 100
Cc1cc(C2CCCCN2)cc(F)c1-c1cc2c(-c3cnn(C)c3)n[nH]c2cn1 (single isomer, unassigned) [Example 174, 5-(2-Fluoro-6-methyl-4-(piperidin-2-yl)phenyl)-3-(1-methyl-1H-pyrazol-4-yl)-1H-pyrazolo[3,4-c]pyridine]	≤ 100
CNC(C)c1cc(C)c(-c2cc3c(-c4cnn(C)c4)n[nH]c3cn2)c(F)c1 (single isomer, unassigned) [Example 189, 1-(3-Fluoro-5-methyl-4-(3-(1-methyl-1H-pyrazol-4-yl)-1H-pyrazolo[3,4-c]pyridin-5-yl)phenyl)-N-methylethanamine]	≤ 100
COc1cccc(F)c1-c1cc2c(NC(=O)c3ccccc3)n[nH]c2cn1 [Example 1, N-(5-(2-Fluoro-6-methoxyphenyl)-1H-pyrazolo[3,4-c]pyridin-3-yl)benzamide]	≤ 100
COc1cccc(F)c1-c1cc2c(NC(=O)c3ccc(C)cc3)n[nH]c2cn1 [Example 2, N-(5-(2-Fluoro-6-methoxyphenyl)-1H-pyrazolo[3,4-c]pyridin-3-yl)-4-methylbenzamide]	≤ 100
COc1cccc(F)c1-c1cc2c(NC(=O)c3ccc(Br)cc3)n[nH]c2cn1 [Example 3, 4-Bromo-N-(5-(2-fluoro-6-methoxyphenyl)-1H-pyrazolo[3,4-c]pyridin-3-yl)benzamide]	≤ 100
COc1cccc(F)c1-c1cc2c(NC(=O)c3cccc(Br)c3)n[nH]c2cn1 [Example 4, 3-Bromo-N-(5-(2-fluoro-6-methoxyphenyl)-1H-pyrazolo[3,4-c]pyridin-3-yl)benzamide]	≤ 100
COc1cccc(F)c1-c1cc2c(NC(=O)c3ccc(F)cc3)n[nH]c2cn1 [Example 5, 4-Fluoro-N-(5-(2-fluoro-6-methoxyphenyl)-1H-pyrazolo[3,4-c]pyridin-3-yl)benzamide]	≤ 100
COc1cccc(F)c1-c1cc2c(NC(=O)c3cccc(F)c3)n[nH]c2cn1 [Example 6, 3-Fluoro-N-(5-(2-fluoro-6-methoxyphenyl)-1H-pyrazolo[3,4-c]pyridin-3-yl)benzamide]	≤ 100
COc1cccc(F)c1-c1cc2c(NC(=O)c3cccc(C#N)c3)n[nH]c2cn1 [Example 7, 3-Cyano-N-(5-(2-fluoro-6-methoxyphenyl)-1H-pyrazolo[3,4-c]pyridin-3-yl)benzamide]	≤ 100
CCc1ccc(C(=O)Nc2n[nH]c3cnc(-c4c(F)cccc4OC)cc23)cc1 [Example 8, 4-Ethyl-N-(5-(2-fluoro-6-methoxyphenyl)-1H-pyrazolo[3,4-c]pyridin-3-yl)benzamide]	≤ 100
COc1cccc(C(=O)Nc2n[nH]c3cnc(-c4c(F)cccc4OC)cc23)c1 [Example 9, N-(5-(2-Fluoro-6-methoxyphenyl)-1H-pyrazolo[3,4-c]pyridin-3-yl)-3-methoxybenzamide]	≤ 100
COc1cccc(F)c1-c1cc2c(NC(=O)c3ccc(F)c(C)c3)n[nH]c2cn1 [Example 10, 4-Fluoro-N-(5-(2-fluoro-6-methoxyphenyl)-1H-pyrazolo[3,4-c]pyridin-3-yl)-3-methylbenzamide]	≤ 100
COc1cccc(F)c1-c1cc2c(NC(=O)c3cc(F)cc(F)c3)n[nH]c2cn1 [Example 11, 3,5-Difluoro-N-(5-(2-fluoro-6-methoxyphenyl)-1H-pyrazolo[3,4-c]pyridin-3-yl)benzamide]	≤ 100
COc1cccc(F)c1-c1cc2c(NC(=O)c3ccc(F)c(F)c3)n[nH]c2cn1 [Example 12, 3,4-Difluoro-N-(5-(2-fluoro-6-methoxyphenyl)-1H-pyrazolo[3,4-c]pyridin-3-yl)benzamide]	≤ 100
COc1cccc(F)c1-c1cc2c(NC(=O)c3ccc4c(c3)OCO4)n[nH]c2cn1 [Example 13, N-(5-(2-Fluoro-6-methoxyphenyl)-1H-pyrazolo[3,4-c]pyridin-3-yl)benzo[d][1,3]dioxole-5-carboxamide]	≤ 100
COc1cccc(F)c1-c1cc2c(NC(=O)c3cnn(C)c3)n[nH]c2cn1 [Example 14, N-(5-(2-Fluoro-6-methoxyphenyl)-1H-pyrazolo[3,4-c]pyridin-3-yl)-1-methyl-1H-pyrazole-4-carboxamide]	≤ 100
COc1cccc(F)c1-c1cc2c(NC(=O)c3ccn(C)n3)n[nH]c2cn1 [Example 15, N-(5-(2-Fluoro-6-methoxyphenyl)-1H-pyrazolo[3,4-c]pyridin-3-yl)-1-methyl-1H-pyrazole-3-carboxamide]	≤ 100
COc1cccc(F)c1-c1cc2c(NC(=O)c3cccc(N4CCOCC4)c3)n[nH]c2cn1 [Example 16, N-(5-(2-Fluoro-6-methoxyphenyl)-1H-pyrazolo[3,4-c]pyridin-3-yl)-3-morpholinobenzamide]	≤ 100
COc1cccc(F)c1-c1cc2c(NC(=O)c3cccc(N4CCNC(=O)C4)c3)n[nH]c2cn1 [Example 17, N-(5-(2-Fluoro-6-methoxyphenyl)-1H-pyrazolo[3,4-c]pyridin-3-yl)-3-(3-oxopiperazin-1-yl)benzamide]	≤ 100
COc1cccc(F)c1-c1cc2c(NC(=O)c3cccc(N4CCN(C)CC4)c3)n[nH]c2cn1 [Example 18, N-(5-(2-Fluoro-6-methoxyphenyl)-1H-pyrazolo[3,4-c]pyridin-3-yl)-3-(4-methylpiperazin-1-yl)benzamide]	≤ 100
COc1cccc(F)c1-c1cc2c(NC(=O)c3cccc(N4CCN(C)C(=O)C4)c3)n[nH]c2cn1 [Example 19, N-(5-(2-Fluoro-6-methoxyphenyl)-1H-pyrazolo[3,4-c]pyridin-3-yl)-3-(4-methyl-3-oxopiperazin-1-yl)benzamide]	≤ 100
CCN1CCN(c2cccc(C(=O)Nc3n[nH]c4cnc(-c5c(F)cccc5OC)cc34)c2)CC1 [Example 20, 3-(4-Ethylpiperazin-1-yl)-N-(5-(2-fluoro-6-methoxyphenyl)-1H-pyrazolo[3,4-c]pyridin-3-yl)benzamide]	≤ 100

Further lines, results first:

Ki [nM]	SMILES
≤ 100	Cn1cc(-c2n[nH]c3cnc(-c4c(F)cc(C5CCCN5)cc4C(F)(F)F)cc23)cn1 (single isomer, unassigned) [Example 226, 5-(2-Fluoro-4-(pyrrolidin-2-yl)-6-(trifluoromethyl)phenyl)-3-(1-methyl-1H-pyrazol-4-yl)-1H-pyrazolo[3,4-c]pyridine]
≤ 100	Cn1cc(-c2n[nH]c3cnc(-c4c(F)cc(C5CCCN5)cc4C(F)(F)F)cc23)cn1 (single isomer, unassigned) [Example 227, 5-(2-Fluoro-4-(pyrrolidin-2-yl)-6-(trifluoromethyl)phenyl)-3-(1-methyl-1H-pyrazol-4-yl)-1H-pyrazolo[3,4-c]pyridine]
≤ 100	CNC(C)c1cc(C)c(-c2cc3c(-c4cnn(C5CC5)c4)n[nH]c3cn2)c(F)c1 (single isomer, unassigned) [Example 228, 1-(4-(3-(1-Cyclopropyl-1H-pyrazol-4-yl)-1H-pyrazolo[3,4-c]pyridin-5-yl)-3-fluoro-5-methylphenyl)-N-methylethanamine]
≤ 100	CNC(C)c1cc(C)c(-c2cc3c(-c4cnn(C5CC5)c4)n[nH]c3cn2)c(F)c1 (single isomer, unassigned) [Example 229, 1-(4-(3-(1-Cyclopropyl-1H-pyrazol-4-yl)-1H-pyrazolo[3,4-c]pyridin-5-yl)-3-fluoro-5-methylphenyl)-N-methylethanamine]
≤ 100	CCn1cc(-c2n[nH]c3cnc(-c4c(C)cc(C5CCCCN5)cc4F)cc23)cn1 (single isomer, unassigned) [Example 230, 3-(1-Ethyl-1H-pyrazol-4-yl)-5-(2-fluoro-6-methyl-4-(piperidin-2-yl)phenyl)-1H-pyrazolo[3,4-c]pyridine]
≤ 100	CCn1cc(-c2n[nH]c3cnc(-c4c(C)cc(C5CCCCN5)cc4F)cc23)cn1 (single isomer, unassigned) [Example 231, 3-(1-Ethyl-1H-pyrazol-4-yl)-5-(2-fluoro-6-methyl-4-(piperidin-2-yl)phenyl)-1H-pyrazolo[3,4-c]pyridine]
≤ 100	Cc1cc(C2CCCCN2)cc(F)c1-c1cc2c(-c3cnn(C4CC4)c3)n[nH]c2cn1 (single isomer, unassigned) [Example 232, 3-(1-Cyclopropyl-1H-pyrazol-4-yl)-5-(2-fluoro-6-methyl-4-(piperidin-2-yl)phenyl)-1H-pyrazolo[3,4-c]pyridine]
≤ 100	Cc1cc(C2CCCCN2)cc(F)c1-c1cc2c(-c3cnn(C4CC4)c3)n[nH]c2cn1 (single isomer, unassigned) [Example 233, 3-(1-Cyclopropyl-1H-pyrazol-4-yl)-5-(2-fluoro-6-methyl-4-(piperidin-2-yl)phenyl)-1H-pyrazolo[3,4-c]pyridine]
≤ 100	CNC1CCc2c1cc(C)c(-c1cc3c(-c4cnn(C)c4)n[nH]c3cn1)c2F (single isomer, unassigned) [Example 238, 4-Fluoro-N,6-dimethyl-5-(3-(1-methyl-1H-pyrazol-4-yl)-1H-pyrazolo[3,4-c]pyridin-5-yl)-2,3-dihydro-1H-inden-1-amine]
≤ 100	CNC1CCc2c1cc(C)c(-c1cc3c(-c4cnn(C)c4)n[nH]c3cn1)c2F (single isomer, unassigned) [Example 239, 4-Fluoro-N,6-dimethyl-5-(3-(1-methyl-1H-pyrazol-4-yl)-1H-pyrazolo[3,4-c]pyridin-5-yl)-2,3-dihydro-1H-inden-1-amine]
